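Dose response: 5 concentrations. Exposure: 48 h. Format: 96-well plates. Endpoint: linear interpolation; highest concentration if not reached. At the GI50, growth is halved. TGI: total growth inhibition.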
How the values were obtained:
Experiment in all cases: DTP human tumour cell line panel, 48 h
786-0 renal = system: 786-0 renal
A498 renal = system: A498 renal
A549 NSCLC = system: A549 NSCLC
ACHN renal = system: ACHN renal
BT-549 breast = system: BT-549 breast
CAKI-1 renal = system: CAKI-1 renal
CCRF-CEM leukemia = system: CCRF-CEM leukemia
COLO 205 colon = system: COLO 205 colon
DU-145 prostate = system: DU-145 prostate
EKVX NSCLC = system: EKVX NSCLC
HCC-2998 colon = system: HCC-2998 colon
HCT-116 colon = system: HCT-116 colon
HCT-15 colon = system: HCT-15 colon
HL-60(TB) leukemia = system: HL-60(TB) leukemia
HOP-62 NSCLC = system: HOP-62 NSCLC
HOP-92 NSCLC = system: HOP-92 NSCLC
HS 578T breast = system: HS 578T breast
HT29 colon = system: HT29 colon
IGROV1 ovarian = system: IGROV1 ovarian
K-562 leukemia = system: K-562 leukemia
KM12 colon = system: KM12 colon
LOX IMVI melanoma = system: LOX IMVI melanoma
M14 melanoma = system: M14 melanoma
MALME-3M melanoma = system: MALME-3M melanoma
MCF7 breast = system: MCF7 breast
MDA-MB-231 breast = system: MDA-MB-231 breast
MDA-MB-435 = system: MDA-MB-435
MOLT-4 leukemia = system: MOLT-4 leukemia
NCI-H226 lung = system: NCI-H226 lung
NCI-H23 lung = system: NCI-H23 lung
NCI-H460 lung = system: NCI-H460 lung
NCI-H522 lung = system: NCI-H522 lung
NCI/ADR-RES ovarian = system: NCI/ADR-RES ovarian
OVCAR-3 ovarian = system: OVCAR-3 ovarian
OVCAR-4 ovarian = system: OVCAR-4 ovarian
OVCAR-5 ovarian = system: OVCAR-5 ovarian
OVCAR-8 ovarian = system: OVCAR-8 ovarian
PC-3 prostate = system: PC-3 prostate
RPMI-8226 leukemia = system: RPMI-8226 leukemia
RXF 393 renal = system: RXF 393 renal
SF-268 CNS = system: SF-268 CNS
SF-295 CNS = system: SF-295 CNS
SF-539 CNS = system: SF-539 CNS
SK-MEL-2 melanoma = system: SK-MEL-2 melanoma
SK-MEL-28 melanoma = system: SK-MEL-28 melanoma
SK-MEL-5 melanoma = system: SK-MEL-5 melanoma
SK-OV-3 ovarian = system: SK-OV-3 ovarian
SN12C renal = system: SN12C renal
SNB-19 CNS = system: SNB-19 CNS
SNB-75 CNS = system: SNB-75 CNS
SR leukemia = system: SR leukemia
SW-620 colon = system: SW-620 colon
T-47D breast = system: T-47D breast
TK-10 renal = system: TK-10 renal
U251 CNS = system: U251 CNS
UACC-257 melanoma = system: UACC-257 melanoma
UO-31 renal = system: UO-31 renal

O=C(/C=C/c1c(-c2ccccc2)[nH]c2ccccc12)S(=O)(=O)c1ccccc1
GI50 (786-0 renal): 52.6 µM
TGI (786-0 renal): > 100 µM
GI50 (A498 renal): 2.2 µM
TGI (A498 renal): 87.8 µM
GI50 (A549 NSCLC): 24.9 µM
TGI (A549 NSCLC): > 100 µM
GI50 (ACHN renal): 39.8 µM
TGI (ACHN renal): > 100 µM
GI50 (BT-549 breast): 5.33 µM
TGI (BT-549 breast): > 100 µM
GI50 (CAKI-1 renal): 6.42 µM
TGI (CAKI-1 renal): > 100 µM
GI50 (CCRF-CEM leukemia): 5.41 µM
TGI (CCRF-CEM leukemia): > 100 µM
GI50 (COLO 205 colon): 6 µM
TGI (COLO 205 colon): > 100 µM
GI50 (DU-145 prostate): 7.54 µM
TGI (DU-145 prostate): > 100 µM
GI50 (EKVX NSCLC): 4.37 µM
TGI (EKVX NSCLC): > 100 µM
GI50 (HCC-2998 colon): 17.5 µM
TGI (HCC-2998 colon): > 100 µM
GI50 (HCT-116 colon): 4.81 µM
TGI (HCT-116 colon): > 100 µM
GI50 (HCT-15 colon): 6.42 µM
TGI (HCT-15 colon): > 100 µM
GI50 (HL-60(TB) leukemia): 5.6 µM
TGI (HL-60(TB) leukemia): 98.7 µM
GI50 (HOP-62 NSCLC): 29.9 µM
TGI (HOP-62 NSCLC): > 100 µM
GI50 (HOP-92 NSCLC): 16.3 µM
TGI (HOP-92 NSCLC): > 100 µM
GI50 (HS 578T breast): 10.1 µM
TGI (HS 578T breast): > 100 µM
GI50 (HT29 colon): 3.76 µM
TGI (HT29 colon): > 100 µM
GI50 (IGROV1 ovarian): 24.3 µM
TGI (IGROV1 ovarian): > 100 µM
GI50 (K-562 leukemia): 3.7 µM
TGI (K-562 leukemia): > 100 µM
GI50 (KM12 colon): 2.03 µM
TGI (KM12 colon): > 100 µM
GI50 (LOX IMVI melanoma): > 100 µM
TGI (LOX IMVI melanoma): > 100 µM
GI50 (M14 melanoma): 5.86 µM
TGI (M14 melanoma): > 100 µM
GI50 (MALME-3M melanoma): 8.11 µM
TGI (MALME-3M melanoma): > 100 µM
GI50 (MCF7 breast): 3.09 µM
TGI (MCF7 breast): > 100 µM
GI50 (MDA-MB-231 breast): 16.6 µM
TGI (MDA-MB-231 breast): > 100 µM
GI50 (MDA-MB-435): 1.73 µM
TGI (MDA-MB-435): 5.07 µM
GI50 (MOLT-4 leukemia): 4.78 µM
TGI (MOLT-4 leukemia): > 100 µM
GI50 (NCI-H226 lung): > 100 µM
TGI (NCI-H226 lung): > 100 µM
GI50 (NCI-H23 lung): 13.6 µM
TGI (NCI-H23 lung): > 100 µM
GI50 (NCI-H460 lung): 3.7 µM
TGI (NCI-H460 lung): > 100 µM
GI50 (NCI-H522 lung): 6.11 µM
TGI (NCI-H522 lung): > 100 µM
GI50 (NCI/ADR-RES ovarian): 3.19 µM
TGI (NCI/ADR-RES ovarian): 53.6 µM
GI50 (OVCAR-3 ovarian): 4.23 µM
TGI (OVCAR-3 ovarian): > 100 µM
GI50 (OVCAR-4 ovarian): 4.48 µM
TGI (OVCAR-4 ovarian): > 100 µM
GI50 (OVCAR-5 ovarian): > 100 µM
TGI (OVCAR-5 ovarian): > 100 µM
GI50 (OVCAR-8 ovarian): 53.6 µM
TGI (OVCAR-8 ovarian): > 100 µM
GI50 (PC-3 prostate): 8.15 µM
TGI (PC-3 prostate): > 100 µM
GI50 (RPMI-8226 leukemia): 13.3 µM
TGI (RPMI-8226 leukemia): > 100 µM
GI50 (RXF 393 renal): 9.34 µM
TGI (RXF 393 renal): 67.1 µM
GI50 (SF-268 CNS): 6.24 µM
TGI (SF-268 CNS): > 100 µM
GI50 (SF-295 CNS): 0.818 µM
TGI (SF-295 CNS): > 100 µM
GI50 (SF-539 CNS): 17.5 µM
TGI (SF-539 CNS): > 100 µM
GI50 (SK-MEL-2 melanoma): 78.6 µM
TGI (SK-MEL-2 melanoma): > 100 µM
GI50 (SK-MEL-28 melanoma): 27.1 µM
TGI (SK-MEL-28 melanoma): > 100 µM
GI50 (SK-MEL-5 melanoma): 4.38 µM
TGI (SK-MEL-5 melanoma): > 100 µM
GI50 (SK-OV-3 ovarian): 23.5 µM
TGI (SK-OV-3 ovarian): > 100 µM
GI50 (SN12C renal): > 100 µM
TGI (SN12C renal): > 100 µM
GI50 (SNB-19 CNS): 35.7 µM
TGI (SNB-19 CNS): > 100 µM
GI50 (SNB-75 CNS): 3.96 µM
TGI (SNB-75 CNS): > 100 µM
GI50 (SR leukemia): 2.42 µM
TGI (SR leukemia): 6.72 µM
GI50 (SW-620 colon): 5.1 µM
TGI (SW-620 colon): > 100 µM
GI50 (T-47D breast): 2.5 µM
TGI (T-47D breast): > 100 µM
GI50 (TK-10 renal): 74 µM
TGI (TK-10 renal): > 100 µM
GI50 (U251 CNS): 40.3 µM
TGI (U251 CNS): > 100 µM
GI50 (UACC-257 melanoma): > 100 µM
TGI (UACC-257 melanoma): > 100 µM
GI50 (UO-31 renal): > 100 µM
TGI (UO-31 renal): > 100 µM
